Like-named read-outs stand apart in the source and are kept apart here.
Tested on: L. bulgaricus DPC6901
Experiment: Well-diffusion assay of naturally produced and synthetic peptides
Type: cell-based, Lactobacillus delbrueckii subsp. bulgaricus
Details: for antimicrobial activity of synthetic peptides: synthetic peptides resuspended in milli Q water at 1 mg/ml
[1] = fractions from HPLC fractionation I and II of L. gasseri LM19 cell extracts and supernatant, well-diffusion, Fig. 4a

Sequence	antimicrobial activity of HPLC fractions containing the peptide mass [1]	antimicrobial activity of HPLC fractions containing the peptide mass	antimicrobial activity of synthetic peptides (well-diffusion, Fig. 4a)
MALKTLEKHELRNVMGGNKWGNAVIGAATGATRGVSWCRGFGPWGMTACGLGGAAIGGYLGYKSN [GamX, class IIb bacteriocin peptide of L. gasseri LM19 cluster 3, purified from culture and synthesised]	low activity	–	–
MIEKVSKNELSRIYGGNNVNWGSVAGSCGKGAVMGIYFGNPILGCANGAATSLVLQTASGIYKNYQKKR [Bact_2, bacteriocin peptide of L. gasseri LM19 cluster 1, identical to gassericin S peptide GasX]	–	largest zones of inhibition	highest activity
MKNFNTLSFETLANIVGGRNNWAANIGGVGGATVAGWALGNAVCGPACGFVGAHYVPIAWAGVTAATGGFGKIRK [GamA, class IIb bacteriocin peptide of L. gasseri LM19 cluster 3, purified from culture and synthesised]	largest zones of inhibition	–	highest activity
MKTLNEQELTQIVGGKGNKGINWANVRCASAVTIGALGGGLAGPGGMVGGFLLGSGACF [GamY, peptide of the novel two-component bacteriocin gassericin M]	–	clear activity	did not show activity
MKVLNECQLQTVVGGKNWSVAKCGGTIGTNIAIGAWRGARAGSFFGQPVSVGAGALIGASAGAIGGSVQCVGWLAGGGR [Bact_1, bacteriocin peptide of L. gasseri LM19 cluster 1, identical to gassericin S peptide GasA]	–	–	lower than that from fractions containing the Bact_1 mass
MRKINKEELVEITGGFNAAKCAVGTAGGAFSIARGSAAFGVPGMVIGGILGGAAGALASCK [GamM, peptide of the novel two-component bacteriocin gassericin M]	–	low activity	notable

From PMC7162838, “Production of multiple bacteriocins, including the novel bacteriocin gassericin M, by Lactobacillus gasseri LM19, a strain isolated from human milk” (Applied Microbiology and Biotechnology, 2020)
